# Reference: BindingDB's records for patent US10202375 (Redx Pharma PLC, 2019)
# Several values for one entry are separate records, joined by “and”; a condition that tells them apart may be missing. Equal entries are not always repeated.
# Biological target: Protein Wnt-3a (Mus musculus, UniProt P27467)
# Test: Dual-Cell beta-Catenin Reporter Assay
# Description: Mouse L cells transfected to constitutively produce biologically active murine Wnt-3a, referred to as L-Wnt cells, were purchased from the American Type Culture Collection, ATCC, Manassas, Va. (ATCC). These cells were cultured in DMEM supplemented with 10% FCS (Gibco/Invitrogen, Carlsbad, Calif.), 1% geneticin and 1% sodium pyruvate (Sigma) at 37° C. with 5% CO2. The cells were seeded into 96 well plates and treated with serial dilutions of compound diluted to 0.1% DMSO concentration. After 24 hours, cell supernatants were transferred to a 96 well plate previously seeded with Leading Light Wnt Reporter Cells, stably transfected with a luciferase gene under control of Wnt pathway response elements. After a further 24 hours, cells are treated with One-glo luciferase assay system (Promega, Madison, Wis.) and the luminescent signal read by envision.
# Protein Wnt-3a, sequence (P27467 whole entry): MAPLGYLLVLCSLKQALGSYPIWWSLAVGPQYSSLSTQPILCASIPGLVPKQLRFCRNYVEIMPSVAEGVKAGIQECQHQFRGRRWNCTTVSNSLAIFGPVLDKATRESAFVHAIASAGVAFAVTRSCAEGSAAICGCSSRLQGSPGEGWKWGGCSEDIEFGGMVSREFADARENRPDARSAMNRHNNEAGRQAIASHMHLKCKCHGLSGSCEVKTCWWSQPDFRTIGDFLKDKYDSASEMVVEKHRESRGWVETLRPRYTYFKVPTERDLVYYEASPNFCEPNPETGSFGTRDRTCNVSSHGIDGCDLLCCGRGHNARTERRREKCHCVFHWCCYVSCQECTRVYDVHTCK
row,IC50,Compound
1,3 nM,"Cc1cc(-c2ccnc3c2cnn3CC(=O)Nc2ccc(-c3cnccn3)nc2)ccn1 [US10202375, Example 15]"
2,< 1 nM and 0.32 nM,"Cc1cc(-c2nc(C)nc3c2ccn3CC(=O)Nc2ccc(-c3cnccn3)cn2)ccn1 [US10202375, Example 10]"
3,3 nM,"Cc1cc(-c2nccc3c2ncn3CC(=O)Nc2ccc(-c3cnccn3)cn2)ccn1 [US10202375, Example 20]"
